Reference: US11447472B2, “Polymorophs of 5-aza-4′-thio-2′-deoxycytidine” (Southern Research Institute, priority 2020, dated 2022)
pIC50: −log10 of the molar value. “And” between values parts separate entries of the source, which are not always exact repeats. Equal values may be shown once. Read-outs that look alike come from different tables or passages of the source.

Legend:
K562 cell lines = assay: CellTiter-Glo cell viability, K562; format: cell-based; settings: K562, 3 days, FIG. 23
Procedure: (§1) K562 and HL-60 cell lines were cultured and maintained in RPMI (10% FBS, 1% Penicillin-Streptomycin) medium at 37° C., 95% Air, and 5% CO2. K562 and HL-60 cell lines were each seeded in 96-well plates at a density of 3000 cells/well (90 μl). Form A and SM were treated in each well at a final concentration of 10 μM by treating 10 μl using 3-fold dilution. The cells were incubated for 3 days at 37° C., 95% Air, and 5% CO2. 96-well plates were placed in room temperature for 30 minutes in order to equilibrate. Then, 100 μl of CellTiter-Glo® Luminescent Cell Viability Assay Reagent was added in 96-wells and incubated for 10 minutes in room temperature. Luminescence was measured using Luminometer and IC50 value was analyzed using GraphPrism.

[1] = Dissolution rate (IDR) at pH 1.2, 6.5 and 5.0; format: physicochemical
[2] = Pharmacokinetics of capsules in male SD rats; settings: 2 mg/kg; for AUC(0-inf) / AUC(0-t) / Cmax / MRT inf / half-life / Tmax: po; for AUC(0-inf): AUCInf; for AUC(0-t): AUClast; for MRT inf: MRTInf_obs
HL-60 cell lines = assay: CellTiter-Glo cell viability, HL-60; format: cell-based; settings: HL-60, 3 days, FIG. 24
Procedure: as §1

tumor = assay: Tumor size (in vivo luciferase activity) in female NOD-SCID mice; settings: for tumor size (in vivo luciferase activity): 5 days on, 2 days rest, 9 days rest, repeated, FIG. 17
Procedure: Aza-T-dCyd starting material (SM) was administered to […] female NOD-SCID mice splitting into four groups. Group 1 was a vehicle control group. In group 2, 2.0 mg/kg of aza-T-dCyd starting material (SM) was administered once a day, and in group 3, 1.0 mg/kg of aza-T-dCyd starting material (SM) was administered twice a day. In groups 2 and 3, aza-T-dCyd starting material (SM) in the above amounts was administered for 5 days followed by 2 days as a rest period, and was administered again for another 5 days followed by 9 days as another rest period. This cycle was repeated. In group 4, 1.0 mg/kg of aza-T-dCyd starting material (SM) was administered once a day for five days followed by 2 days as a rest period, and this cycle was repeated.

[3] = tested on: blood cancer cells (Mv4-11); assay: IC50 in blood cancer cells (Mv4-11) at different exposure times; format: cell-based; settings: Homo sapiens
Procedure: Furthermore, the half maximal inhibitory concentration (IC50) was measured at 1 hr, 2 hr, and 4 hr after the blood cancer cells (Mv4-11) were treated with aza-T-dCyd starting material (SM). […] In addition, the measured IC50 at 4 hr was about 80 nM, which was much higher than the expected value of 20 nM. Therefore, it was confirmed that the efficiency of aza-T-dCyd starting material (SM) greatly decreases as the exposure time of the compound to the cells increases.

[4] = 0.25 h, capsule (8:92 w/w with microcrystalline cellulose), male SD rat
[5] = 0.25 h, capsule, mean of two male SD rats
[6] = 0.5 h, capsule, mean of two male SD rats
[7] = capsule, mean of two male SD rats
[8] = male, SD, rat, plasma, Mean, capsule, mean of two male SD rats
[9] = male, SD, rat, plasma, individual rat, capsule, male SD rat

Nc1ncn([C@H]2C[C@H](O)[C@@H](CO)S2)c(=O)n1 [Form A, 5-Aza-4′-thio-2′-deoxycytidine]
IC50 value lower than SM (K562 cell lines): about 5% | IDR ([1]; FaSSIF, pH 6.5): 2.2 ± 0.06 mg/mL/Cm^2/min | IDR ([1]; FeSSIF, pH 5.0): 4.6 ± 0.07 mg/mL/Cm^2/min | IDR ([1]; SGF, pH 1.2): 7.4 ± 0.21 mg/mL/Cm^2/min | Concentration (plasma), individual rat [2, 4]: 77.2 ng/mL and 511 ng/mL | Concentration (plasma), Mean [2, 5]: 294 ng/mL | Concentration (plasma), individual rat ([2]; 0.5 h, capsule, male SD rat): 254 ng/mL and 721 ng/mL | Concentration (plasma), Mean [2, 6]: 488 ng/mL | Concentration (plasma), individual rat ([2]; 1 h, capsule, male SD rat): 815 ng/mL and 912 ng/mL | Concentration (plasma), Mean ([2]; 1 h, capsule, mean of two male SD rats): 864 ng/mL | Concentration (plasma), individual rat ([2]; 2 h, capsule, male SD rat): 677 ng/mL and 645 ng/mL | Concentration (plasma), Mean ([2]; 2 h, capsule, mean of two male SD rats): 661 ng/mL | Concentration (plasma), individual rat ([2]; 4 h, capsule, male SD rat): 556 ng/mL and 420 ng/mL | Concentration (plasma), Mean ([2]; 4 h, capsule, mean of two male SD rats): 488 ng/mL | Concentration (plasma), individual rat ([2]; 6 h, capsule, male SD rat): 397 ng/mL and 307 ng/mL | Concentration (plasma), Mean ([2]; 6 h, capsule, mean of two male SD rats): 352 ng/mL | Concentration (plasma), individual rat ([2]; 8 h, capsule, male SD rat): 261 ng/mL and 210 ng/mL | Concentration (plasma), Mean ([2]; 8 h, capsule, mean of two male SD rats): 236 ng/mL | Concentration (plasma), individual rat ([2]; 24 h, capsule, male SD rat): 6.71 ng/mL and 4.29 ng/mL | Concentration (plasma), Mean ([2]; 24 h, capsule, mean of two male SD rats): 5.50 ng/mL | AUCInf, individual rat ([2]; capsule, male SD rat): 6079 ng·h/mL and 5446 ng·h/mL | AUC_%Extrap_obs, individual rat ([2]; capsule, male SD rat): 0.485% and 0.329% | AUClast, individual rat ([2]; capsule, male SD rat): 6050 ng·h/mL and 5428 ng·h/mL | AUClast/D, individual rat ([2]; capsule, male SD rat): 3020 ng·h/mL per mg/kg and 2710 ng·h/mL per mg/kg | Cmax, individual rat ([2]; capsule, male SD rat): 815 ng/mL and 912 ng/mL | MRTInf_obs, individual rat ([2]; capsule, male SD rat): 5.40 h and 4.83 h | T1/2, individual rat ([2]; capsule, male SD rat): 3.05 h and 2.89 h | Tmax, individual rat ([2]; capsule, male SD rat): 1.00 h | AUC values higher than SM ([2]; capsule, male SD rats): about 30% | Cmax value relative to SM ([2]; capsule, male SD rats, higher than SM): about 1.3 times | AUCInf, Mean [2, 7]: 5763 ng·h/mL | AUC_%Extrap_obs, Mean [2, 7]: 0.407% | AUClast, Mean [2, 7]: 5739 ng·h/mL | AUClast/D, Mean [2, 7]: 2870 ng·h/mL per mg/kg | Cmax, Mean [2, 7]: 864 ng/mL | MRTInf_obs, Mean [2, 7]: 5.11 h | T1/2, Mean [2, 7]: 2.97 h | Tmax, Mean [2, 7]: 1.00 h | IC50 value lower than SM (HL-60 cell lines): about 5%

Nc1ncn([C@H]2C[C@H](O)[C@@H](CO)S2)c(=O)n1 [SM, 5-Aza-4′-thio-2′-deoxycytidine]
tumor size on day 43 (tumor; Group 2 (2.0 mg/kg, once a day) compared with 'Group 1 (1.0 mg/kg, twice a day)', FIG. 18): significantly smaller | tumor size (in vivo luciferase activity) (tumor; Group 2: 2.0 mg/kg once a day): most greatly suppressed | tumor size (in vivo luciferase activity) (tumor; Group 3: 1.0 mg/kg twice a day): sharply increased after 40 days | pIC50 ([3]; Mv4-11, 1 hr after treatment, read-out: measured IC50 at 1 hr): ~6.80 | pIC50 ([3]; Mv4-11, 2 hr after treatment, read-out: measured IC50 at 2 hr): ~6.92 | pIC50 ([3]; Mv4-11, 4 hr after treatment, read-out: measured IC50 at 4 hr): ~7.10 | pIC50 ([3]; Mv4-11, expected from the IC50 measured at 1 hr, read-out: expected IC50 at 2 hr): 7.10 | pIC50 ([3]; Mv4-11, expected from the IC50 measured at 1 hr, read-out: expected IC50 at 4 hr): 7.70 | Concentration (plasma), individual rat [2, 4]: 29.1 ng/mL and 64.9 ng/mL | Concentration (plasma), Mean [2, 5]: 47.0 ng/mL | Concentration (plasma), individual rat ([2]; 0.5 h, capsule, male SD rat): 123 ng/mL and 243 ng/mL | Concentration (plasma), Mean [2, 6]: 183 ng/mL | Concentration (plasma), individual rat ([2]; 1 h, capsule, male SD rat): 321 ng/mL and 610 ng/mL | Concentration (plasma), individual rat ([2]; 2 h, capsule, male SD rat): 613 ng/mL | Concentration (plasma), individual rat ([2]; 4 h, capsule, male SD rat): 442 ng/mL | Concentration (plasma), individual rat ([2]; 6 h, capsule, male SD rat): 283 ng/mL | Concentration (plasma), individual rat ([2]; 8 h, capsule, male SD rat): 199 ng/mL | Concentration (plasma), individual rat ([2]; 24 h, capsule, male SD rat): 2.65 ng/mL and 4.48 ng/mL | AUCInf, individual rat ([2]; capsule, male SD rat): 4780 ng·h/mL | AUC_%Extrap_obs, individual rat ([2]; capsule, male SD rat): 0.255% and 0.402% | AUClast, individual rat ([2]; capsule, male SD rat): 4761 ng·h/mL | AUClast/D, individual rat ([2]; capsule, male SD rat): 2030 ng·h/mL per mg/kg and 2380 ng·h/mL per mg/kg | Cmax, individual rat ([2]; capsule, male SD rat): 613 ng/mL | MRTInf_obs, individual rat ([2]; capsule, male SD rat): 5.23 h | T1/2, individual rat ([2]; capsule, male SD rat): 2.98 h | AUC_%Extrap_obs, Mean [2, 7]: 0.329% | AUClast/D, Mean [2, 7]: 2210 ng·h/mL per mg/kg | concentration at 1 h ([2]; male, SD, rat, plasma, oral, Concentration (plasma), Mean, 1 h, capsule, mean of two male SD rats): 466 ng/mL | concentration at 2 h ([2]; male, SD, rat, plasma, oral, Concentration (plasma), Mean, 2 h, capsule, mean of two male SD rats): 657 ng/mL | concentration at 4 h ([2]; male, SD, rat, plasma, oral, Concentration (plasma), Mean, 4 h, capsule, mean of two male SD rats): 415 ng/mL | concentration at 6 h ([2]; male, SD, rat, plasma, oral, Concentration (plasma), Mean, 6 h, capsule, mean of two male SD rats): 272 ng/mL | concentration at 8 h ([2]; male, SD, rat, plasma, oral, Concentration (plasma), Mean, 8 h, capsule, mean of two male SD rats): 178 ng/mL | concentration at 24 h ([2]; male, SD, rat, plasma, oral, Concentration (plasma), Mean, 24 h, capsule, mean of two male SD rats): 3.57 ng/mL | concentration at 2 h ([2]; male, SD, rat, plasma, oral, Concentration (plasma), individual rat, 2 h, capsule, male SD rat): 700 ng/mL | concentration at 4 h ([2]; male, SD, rat, plasma, oral, Concentration (plasma), individual rat, 4 h, capsule, male SD rat): 387 ng/mL | concentration at 6 h ([2]; male, SD, rat, plasma, oral, Concentration (plasma), individual rat, 6 h, capsule, male SD rat): 261 ng/mL | concentration at 8 h ([2]; male, SD, rat, plasma, oral, Concentration (plasma), individual rat, 8 h, capsule, male SD rat): 156 ng/mL | AUC(0-inf) [2, 8]: 4430 ng·h/mL | AUC(0-inf) [2, 9]: 4080 ng·h/mL | AUC(0-t) [2, 8]: 4410 ng·h/mL | AUC(0-t) [2, 9]: 4060 ng·h/mL | Cmax [2, 8]: 657 ng/mL | Cmax [2, 9]: 700 ng/mL | MRT inf [2, 8]: 5.15 h | MRT inf [2, 9]: 5.06 h | half-life ([2]; male, SD, rat, plasma, T1/2, Mean, capsule, mean of two male SD rats): 2.85 h | half-life ([2]; male, SD, rat, plasma, T1/2, individual rat, capsule, male SD rat): 2.72 h | Tmax [2, 8]: 2 h | Tmax [2, 9]: 2 h
